Reference: paper PMC11476017, “A Lincomycin-Specific Antibody Was Developed Using Hapten Prediction, and an Immunoassay Was Established to Detect Lincomycin in Pork and Milk” (Foods, 2024)

Tested on: T1, monoclonal antibody 1B11 (LIN/1B11)
T1 construct: whole monoclonal antibody, IgG1
Test: indirect competitive ELISA with LIN-NaIO4-OVA coating antigen
Assay type: binding

- IC50: 0.57 ± 0.03 µg/kg
Compound: CCC[C@@H]1C[C@@H](C(=O)N[C@@H]([C@H]2O[C@H](SC)[C@H](O)[C@@H](O)[C@H]2O)[C@@H](C)O)N(C)C1 [LIN, lincomycin]
